Results taken from patent publication US10669272B2, “Substituted naphthyridinone compounds useful as T cell activators” (BRISTOL-MYERS SQUIBB COMPANY, priority 2018, dated 2020).
Like-named read-outs stand apart in the source and are kept apart here.

What was measured:
[1] = target: T1, human DGKα (Homo sapiens, UniProt P23743); experiment: DGKα LIPGLO assay (extruded liposome substrate), in vitro DGK inhibition; assay type: biochemical; conditions: read-out: DGKa LIPGLO IC50
T1 construct: TVMV protease cleavage site (C); Hexa-His (C); made in house; host or cells: Sf9 insect cells (baculovirus, Bac-to-Bac)

[2] = target: T2, human DGKζ (Homo sapiens, UniProt Q13574); experiment: DGKζ LIPGLO assay (extruded liposome substrate), in vitro DGK inhibition; assay type: biochemical; conditions: read-out: DGKz LIPGLO IC50
T2 construct: TVMV protease cleavage site (C); Hexa-His (C); made in house; host or cells: Sf9 insect cells (baculovirus, Bac-to-Bac)

[3] = tested on: naïve human CD8 T cells; experiment: Human CD8 T cells IFN-γ assay; assay type: cell-based; conditions: normalized to 3 μM reference compound with anti-CD3 plus anti-CD28 as 100% activation, read-out: HuCD8 INFG Normalized EC50;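 note: Naïve human CD8 T cells stimulated with plate-bound anti-CD3 and soluble anti-CD28, IFN-γ in supernatant quantified by AlphaLISA and converted to pg/mL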
[4] = tested on: Human venous whole blood; experiment: Human whole blood IFN-γ assay; assay type: cell-based; conditions: human whole blood, read-out: INFg Whole Blood Normalized Agonist EC50;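 note: blood from healthy donors exposed to compound for 1 h before stimulation with anti-CD3 and anti-CD28 at 1 µg/mL each, IFN-γ quantified in supernatant by AlphaLISA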
Procedure: Human Whole Blood IFN-γ Assay
Human venous whole blood (22.5 μL per well), obtained from healthy donors, was pre-treated with compounds for one hour at 37° C. in a humidified 95% air/5% CO2 incubator. The blood was stimulated with 2.5 μL anti-human CD3 and anti-CD28 mAb at a final concentration of 1 μg/mL each for 24 hours at 37° C. IFN-γ in the supernatants was measured using AlphLISA kit (Cat # AL217).

[5] = anti-CD3 plus anti-CD28, 24 hours, 3 μM reference compound = 100% activation
[6] = normalized to 3 μM reference compound with anti-CD3 plus anti-CD28 as 100% activation
[7] = Homo sapiens, 24 h, anti-CD3 plus anti-CD28, 24 hours, 3 μM reference compound = 100% activation
[8] = Homo sapiens, 24 h, normalized to 3 μM reference compound with anti-CD3 plus anti-CD28 as 100% activation

T2 sequence (Q13574 with tags, fused parts or gaps isoform Q13574-4): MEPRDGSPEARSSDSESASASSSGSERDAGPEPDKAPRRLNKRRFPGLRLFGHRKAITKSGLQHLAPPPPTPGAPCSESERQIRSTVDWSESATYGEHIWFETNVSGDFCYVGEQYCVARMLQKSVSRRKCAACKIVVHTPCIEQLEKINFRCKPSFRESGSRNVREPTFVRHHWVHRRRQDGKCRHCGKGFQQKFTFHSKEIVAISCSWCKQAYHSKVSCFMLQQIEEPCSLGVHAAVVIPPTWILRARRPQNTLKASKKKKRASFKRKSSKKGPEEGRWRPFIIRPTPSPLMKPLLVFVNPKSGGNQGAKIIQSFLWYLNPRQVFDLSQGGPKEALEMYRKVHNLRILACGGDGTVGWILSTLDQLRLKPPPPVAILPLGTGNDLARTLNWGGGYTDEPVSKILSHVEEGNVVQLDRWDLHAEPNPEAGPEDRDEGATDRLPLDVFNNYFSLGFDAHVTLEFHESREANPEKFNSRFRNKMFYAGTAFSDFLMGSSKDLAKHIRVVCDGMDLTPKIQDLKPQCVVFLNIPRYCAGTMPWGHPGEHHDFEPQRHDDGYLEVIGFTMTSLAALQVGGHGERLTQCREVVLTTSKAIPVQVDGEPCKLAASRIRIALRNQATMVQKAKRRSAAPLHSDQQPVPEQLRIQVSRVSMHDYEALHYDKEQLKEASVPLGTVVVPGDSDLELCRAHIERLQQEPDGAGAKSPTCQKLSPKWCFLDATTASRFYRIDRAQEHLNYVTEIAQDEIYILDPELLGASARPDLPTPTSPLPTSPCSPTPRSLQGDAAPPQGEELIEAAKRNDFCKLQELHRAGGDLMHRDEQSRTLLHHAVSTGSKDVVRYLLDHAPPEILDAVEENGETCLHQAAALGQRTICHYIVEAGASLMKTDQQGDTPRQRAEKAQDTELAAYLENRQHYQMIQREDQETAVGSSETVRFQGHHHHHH
T1 sequence (P23743 with tags, fused parts or gaps): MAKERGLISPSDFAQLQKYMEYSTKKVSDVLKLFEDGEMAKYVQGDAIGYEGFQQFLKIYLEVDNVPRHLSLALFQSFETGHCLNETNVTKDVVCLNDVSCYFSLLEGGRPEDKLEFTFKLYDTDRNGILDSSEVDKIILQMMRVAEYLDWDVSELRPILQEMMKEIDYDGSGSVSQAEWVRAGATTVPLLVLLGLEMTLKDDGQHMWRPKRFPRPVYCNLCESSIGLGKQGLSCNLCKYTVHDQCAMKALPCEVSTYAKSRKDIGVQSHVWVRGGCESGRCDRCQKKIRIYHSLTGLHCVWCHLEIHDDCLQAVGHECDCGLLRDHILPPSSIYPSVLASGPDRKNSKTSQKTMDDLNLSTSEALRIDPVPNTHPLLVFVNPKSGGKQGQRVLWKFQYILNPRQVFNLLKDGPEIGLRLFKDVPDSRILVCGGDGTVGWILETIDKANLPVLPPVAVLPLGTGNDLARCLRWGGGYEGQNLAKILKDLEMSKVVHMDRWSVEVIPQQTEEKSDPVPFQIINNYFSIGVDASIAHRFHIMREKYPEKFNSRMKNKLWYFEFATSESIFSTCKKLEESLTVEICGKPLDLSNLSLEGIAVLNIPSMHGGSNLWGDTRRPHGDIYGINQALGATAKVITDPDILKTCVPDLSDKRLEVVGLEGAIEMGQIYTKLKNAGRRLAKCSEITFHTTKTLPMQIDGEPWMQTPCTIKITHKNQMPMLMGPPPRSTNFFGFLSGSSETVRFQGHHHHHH

SMILES	IC50 ([1]; liposome (LIPGLO) assay) [µM]	IC50 ([2]; liposome (LIPGLO) assay) [µM]	EC50 [4, 6] [µM]	further results
CC(C)OC(=O)C1CN(c2cc(=O)n(C)c3ccc(C#N)nc23)CCN1C(c1ccc(F)cc1)c1ccc(F)cc1 (single isomer, unassigned) [Example 62, Isopropyl 1-(bis(4-fluorophenyl)methyl)-4-(6-cyano-1-methyl-2-oxo-1,2-dihydro-1,5-naphthyridin-4-yl)piperazine-2-carboxylate]	240	15	–	EC50 [3]: 1.8 µM
Cn1c(=O)cc(N2CCN(C(c3ccc(F)cc3)c3ccc(F)cc3)CC2C(N)=O)c2nc(C#N)ccc21 (single isomer, unassigned) [Example 142, 4-(bis(4-fluorophenyl)methyl)-1-(6-cyano-1-methyl-2-oxo-1,2-dihydro-1,5-naphthyridin-4-yl)piperazine-2-carboxamide]	40	65	–	EC50 ([3]; Homo sapiens, T-cell, 20 h): 10 µM
C[C@@H]1CN(c2c(C#N)c(=O)n(C)c3ccc(Br)nc23)[C@@H](C)CN1C(c1ccc(F)cc1)c1ccc(F)cc1 [Example 158, 4-((2S,5R)-4-(bis(4-fluorophenyl)methyl)-2,5-dimethylpiperazin-1-yl)-6-bromo-1-methyl-2-oxo-1,2-dihydro-1,5-naphthyridine-3-carbonitrile]	3.6	13	–	EC50 ([3]; Homo sapiens, T-cell, 20 h): 0.11 µM
COC(=O)C1CN(c2c(F)c(=O)n(C)c3ccc(C#N)nc23)CCN1C(c1ccc(Cl)cc1)c1ccc(Cl)cc1 (single isomer, unassigned) [Example 94, methyl 1-(bis(4-chlorophenyl)methyl)-4-(6-cyano-3-fluoro-1-methyl-2-oxo-1,2-dihydro-1,5-naphthyridin-4-yl)piperazine-2-carboxylate]	27	4.4	–	EC50 [3]: 0.4 µM
C[C@@H]1CN(c2cc(=O)n(C)c3ccc(C#N)nc23)[C@@H](C)CN1Cc1c(F)cc(C#N)cc1F [Example 267, 8-[(2S,5R)-4-[(4-cyano-2,6-difluorophenyl)methyl]-2,5-dimethylpiperazin-1-yl]-5-methyl-6-oxo-5,6-dihydro-1,5-naphthyridine-2-carbonitrile]	0.39	1.6	–	EC50 ([3]; Homo sapiens, T-cell, 20 h): 10 µM
Cn1c(=O)cc(N2CCN(C(c3ccc(F)cc3)c3ccc(F)cc3)C(C(=O)O)C2)c2nc(C#N)ccc21 (stereo not drawn) [Example 55, 1-(bis(4-fluorophenyl)methyl)-4-(6-cyano-1-methyl-2-oxo-1,2-dihydro-1,5-naphthyridin-4-yl)piperazine-2-carboxylic acid]	240	180	–	EC50 ([3]; Homo sapiens, T-cell, 20 h): 6.4 µM
COc1cc(F)ccc1C(c1ccc(F)cc1)N1C[C@H](C)N(c2c(C#N)c(=O)n(C)c3ccc(C#N)nc23)C[C@H]1C (single isomer, unassigned) [Example 111]	62	1.6	–	EC50 ([3]; Homo sapiens, T-cell, 20 h): 0.073 µM
COC(=O)C1CN(C(c2ccc(F)cc2)c2ccc(F)cc2)CCN1c1cc(=O)n(C)c2ccc(C#N)nc12 (single isomer, unassigned) [Example 137, Methyl 4-(bis(4-fluorophenyl)methyl)-1-(6-cyano-1-methyl-2-oxo-1,2-dihydro-1,5-naphthyridin-4-yl)piperazine-2-carboxylate]	240	33	–	EC50 [3]: 1.5 µM
COc1ccc2c(n1)c(N1C[C@@H](C)N(C(c3ccccc3)c3ccc(F)cc3)C[C@@H]1C)cc(=O)n2C (single isomer, unassigned) [Example 239]	5.9	64	–	EC50 [3]: 10 µM
Cc1ccc(C)c(C(C)N2CCN(c3c(C#N)c(=O)n(C)c4ccc(C#N)nc34)C[C@H]2C)c1 (single isomer, unassigned) [Example 977]	–	–	–	IC50 ([1]; DGKα liposome (LIPGLO) assay): 48 µM; IC50 ([2]; DGKζ liposome (LIPGLO) assay): 1 µM; EC50 [4, 5]: 4.9 µM
Cc1nccc(C(c2ccc(F)cc2)N2C[C@H](C)N(c3cc(=O)n(C)c4ccc(C#N)nc34)C[C@H]2C)n1 (single isomer, unassigned) [Example 401]	7.8	4.5	0.93	–
Cc1cccc(C(C)N2CCN(c3c(C#N)c(=O)n(C)c4ccc(C#N)nc34)C[C@H]2C)n1 (stereo partly drawn) [Example 964]	–	–	–	IC50 ([1]; DGKα liposome (LIPGLO) assay): 1.9 µM; IC50 ([2]; DGKζ liposome (LIPGLO) assay): 32 µM; EC50 [4, 7]: 13 µM
C[C@@H]1CN(c2cc(=O)n(C)c3ccc(C#N)nc23)[C@@H](C)CN1C(c1ccc(F)cc1)c1cnn2ccccc12 (single isomer, unassigned) [Example 699]	47	2.1	0.98	–
C[C@@H]1CN(c2cc(=O)n(C)c3ccc(C#N)nc23)[C@@H](C)CN1C(c1ccc(F)cc1)c1ncccn1 (stereo partly drawn) [Example 677]	0.15	2.7	1.8	–
C[C@@H]1CN(c2cc(=O)n(C)c3ccc(C#N)nc23)[C@@H](C)CN1C(c1ccc(F)cc1)c1ccc(N2CCOCC2)cc1 (single isomer, unassigned) [Example 663]	> 250	24	20	–
CC(c1ccc(OC(F)(F)F)cc1)N1C[C@H](C)N(c2cc(=O)n(C)c3ccc(C#N)nc23)C[C@H]1CN1CCOCC1 (single isomer, unassigned) [Example 1416]	48	52	20	–

SMILES	IC50 ([1]; liposome (LIPGLO) assay) [µM]	IC50 ([2]; liposome (LIPGLO) assay) [µM]	EC50 [4, 6] [µM]	further results
COCc1cc(F)ccc1C(C)N1C[C@H](C)N(c2cc(=O)n(C)c3ccc(C#N)nc23)C[C@H]1C (single isomer, unassigned) [Example 1314]	10	0.049	–	EC50 [4, 8]: 0.46 µM
C[C@@H]1CN(c2cc(=O)[nH]c3ccc(C#N)nc23)[C@@H](C)CN1C(c1ccc(F)cc1)c1ccc(C#N)cc1 (single isomer, unassigned) [Example 1337]	1.8	8.2	–	EC50 [4, 8]: 2.7 µM
C[C@@H]1CN(c2cc(=O)n(C)c3ccc(C#N)nc23)[C@@H](C)CN1C(c1ccc(F)cc1)C1CCOCC1 (single isomer, unassigned) [Example 387]	1.5	3.1	–	EC50 [4, 8]: 3.6 µM
CC(c1cccc2c1OC(F)(F)O2)N1C[C@H](C)N(c2cc(=O)n(C)c3ccc(C#N)nc23)C[C@H]1C (single isomer, unassigned) [Example 1216]	83	0.15	1.8	–
C[C@@H]1CN(c2cc(=O)n(C)c3ccc(C#N)nc23)[C@@H](C)CN1C(c1ccc(F)cc1)c1nc(C2CC2)nn1C (single isomer, unassigned) [Example 769]	–	–	–	IC50 ([1]; DGKα liposome (LIPGLO) assay): 16 µM; IC50 ([2]; DGKζ liposome (LIPGLO) assay): 0.2 µM; EC50 [4, 5]: 0.46 µM
C[C@@H]1CN(c2cc(=O)n(C)c3ccc(C#N)nc23)[C@@H](C)CN1Cc1cccc(OC(F)(F)F)c1 [Example 586]	7.3	5.6	–	EC50 [4, 8]: 2.3 µM
C[C@@H]1CN(c2c(C#N)c(=O)n(C)c3ccc(C#N)nc23)CCN1C(c1ccc(Cl)cc1)c1ccncn1 (single isomer, unassigned) [Example 319]	2.2	6.6	–	EC50 [4, 8]: 1.6 µM
COCC(F)(F)C(c1ccc(F)cc1)N1C[C@H](C)N(c2cc(=O)n(C)c3ccc(C#N)nc23)C[C@H]1C (single isomer, unassigned) [Example 1312]	0.1	0.15	–	EC50 [4, 8]: 0.33 µM
CC(c1nc(C2CC2)cs1)N1C[C@H](C)N(c2cc(=O)n(C)c3ccc(C#N)nc23)C[C@H]1C (single isomer, unassigned) [Example 646]	1.6	2.7	–	EC50 [4, 8]: 6.7 µM
CC(c1cccc2c1OC(F)(F)O2)N1C[C@H](C)N(c2cc(=O)n(C)c3ccc(C#N)nc23)C[C@H]1C (single isomer, unassigned) [Example 1217]	37	2.1	4.6	–
C[C@@H]1CN(c2cc(=O)n(C)c3ccc(C#N)nc23)[C@@H](C)CN1C(CO)c1ccc(F)cc1 (single isomer, unassigned) [Example 558]	10	100	15	–
CC(c1cccc(OC(F)(F)F)c1F)N1C[C@H](C)N(c2cc(=O)n(C)c3ccc(C#N)nc23)C[C@H]1C (single isomer, unassigned) [Example 1209]	20	1.2	12	–
C[C@@H]1CN(c2cc(=O)n(C)c3ccc(C#N)nc23)[C@@H](C)CN1Cc1ccc(OC(F)(F)F)cc1Br [Example 593]	3.1	5.9	–	EC50 [4, 8]: 1.2 µM
CC(c1ccc(OC(F)(F)F)cc1)N1CCN(c2c(C#N)c(=O)n(C)c3ccc(C#N)nc23)C[C@H]1C (single isomer, unassigned) [Example 958]	–	–	–	IC50 ([1]; DGKα liposome (LIPGLO) assay): 0.49 µM; IC50 ([2]; DGKζ liposome (LIPGLO) assay): 28 µM; EC50 [4, 7]: 20 µM
CC(c1ccc(-n2cncn2)cc1)N1C[C@H](C)N(c2cc(=O)n(C)c3ccc(C#N)nc23)C[C@H]1C (single isomer, unassigned) [Example 1239]	26	23	20	–
COc1ccc(C(c2cccc(F)c2)N2C[C@H](C)N(c3cc(=O)n(C)c4ccc(C#N)nc34)C[C@H]2C)nc1 (single isomer, unassigned) [Example 686]	4.3	3.4	0.56	–
